In PMC11249646, “Small-Molecule Disruptors of the Interaction between Calcium- and Integrin-Binding Protein 1 and Integrin αIIbβ3 as Novel Antiplatelet Agents” (ACS Pharmacology & Translational Science, 2024):

What follows are molecules tested against T1, GST-CIB1 : F-scrambled peptide (Homo sapiens, UniProt Q99828) (assay: FP scrambled-peptide counter screen, 384-well format). Details: F-scrambled peptide.
T1 construct: made in house; host or cells: BL-21 plus RIL cells (E. coli)
T1 sequence (Q99828 1-191): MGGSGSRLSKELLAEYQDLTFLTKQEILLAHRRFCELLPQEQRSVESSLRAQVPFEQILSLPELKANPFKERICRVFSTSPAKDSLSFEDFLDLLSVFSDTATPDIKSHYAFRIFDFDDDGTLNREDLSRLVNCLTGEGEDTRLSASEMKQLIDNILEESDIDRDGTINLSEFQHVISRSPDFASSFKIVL
Format: binding

SMILES | 384-well COUNTERSCREEN Efficacy (%)
Cc1ccc(S(=O)(=O)Nc2cnccc2C(=O)Nc2nc(-c3nc4ccccc4s3)cs2)cc1.O=C(O)C(F)(F)F [NCGC00343736-01] | 23%
N#Cc1cnc(NS(=O)(=O)c2ccc(NC(=O)Cc3ccc(F)c(Cl)c3)cc2)s1.O=C(O)C(F)(F)F [NCGC00343826-01] | 28%
Cc1ccc(S(=O)(=O)Nc2cnccc2C(=O)Nc2nc3ccccc3s2)cc1.O=C(O)C(F)(F)F [NCGC00343897-01] | 16%

Same assay, conditions: F-scrambled peptide; *: Curve in opposite direction

SMILES | 384-well COUNTERSCREEN Confirm?
Cc1ccc(S(=O)(=O)Nc2cnccc2C(=O)Nc2nc(-c3nc4ccccc4s3)cs2)cc1.O=C(O)C(F)(F)F [NCGC00343736-01] | YES
N#Cc1cnc(NS(=O)(=O)c2ccc(NC(=O)Cc3ccc(F)c(Cl)c3)cc2)s1.O=C(O)C(F)(F)F [NCGC00343826-01] | YES
Cc1ccc(S(=O)(=O)Nc2cnccc2C(=O)Nc2nc3ccccc3s2)cc1.O=C(O)C(F)(F)F [NCGC00343897-01] | YES

Same assay, conditions: F-scrambled peptide; read-out: 384-well COUNTERSCREEN IC50

SMILES | IC50
Cc1ccc(S(=O)(=O)Nc2cnccc2C(=O)Nc2nc(-c3nc4ccccc4s3)cs2)cc1.O=C(O)C(F)(F)F [NCGC00343736-01] | > 120 µM
N#Cc1cnc(NS(=O)(=O)c2ccc(NC(=O)Cc3ccc(F)c(Cl)c3)cc2)s1.O=C(O)C(F)(F)F [NCGC00343826-01] | > 120 µM
Cc1ccc(S(=O)(=O)Nc2cnccc2C(=O)Nc2nc3ccccc3s2)cc1.O=C(O)C(F)(F)F [NCGC00343897-01] | > 120 µM

These molecules were tested against T2, CIB1 and αIIb interaction (CIB1-GST : F-αIIb peptide) (Homo sapiens, UniProt Q99828) (assay: FP assay, 1536-well qHTS format (primary and confirmatory screen)). Details: confirmatory screen, YES/NO call.
T2 construct: made in house; host or cells: BL-21 plus RIL cells (E. coli)
T2 sequence (Q99828 1-191): T1 sequence (Q99828 1-191)
Format: binding

SMILES | CONFIRMATORY SCREEN Confirm?
Cc1ccc(S(=O)(=O)Nc2cnccc2C(=O)Nc2nc(-c3nc4ccccc4s3)cs2)cc1.O=C(O)C(F)(F)F [NCGC00343736-01] | YES
N#Cc1cnc(NS(=O)(=O)c2ccc(NC(=O)Cc3ccc(F)c(Cl)c3)cc2)s1.O=C(O)C(F)(F)F [NCGC00343826-01] | YES
Cc1ccc(S(=O)(=O)Nc2cnccc2C(=O)Nc2nc3ccccc3s2)cc1.O=C(O)C(F)(F)F [NCGC00343897-01] | YES

Same assay, conditions: confirmatory screen, qHTS curve class; negative sign = inhibitory curve

SMILES | CONFIRMATORY SCREEN Curve Class
Cc1ccc(S(=O)(=O)Nc2cnccc2C(=O)Nc2nc(-c3nc4ccccc4s3)cs2)cc1.O=C(O)C(F)(F)F [NCGC00343736-01] | -1.1
N#Cc1cnc(NS(=O)(=O)c2ccc(NC(=O)Cc3ccc(F)c(Cl)c3)cc2)s1.O=C(O)C(F)(F)F [NCGC00343826-01] | -1.4
Cc1ccc(S(=O)(=O)Nc2cnccc2C(=O)Nc2nc3ccccc3s2)cc1.O=C(O)C(F)(F)F [NCGC00343897-01] | -1.4

Same assay, conditions: confirmatory screen; negative = inhibition

SMILES | CONFIRMATORY SCREEN Efficacy (%)
Cc1ccc(S(=O)(=O)Nc2cnccc2C(=O)Nc2nc(-c3nc4ccccc4s3)cs2)cc1.O=C(O)C(F)(F)F [NCGC00343736-01] | -89%
N#Cc1cnc(NS(=O)(=O)c2ccc(NC(=O)Cc3ccc(F)c(Cl)c3)cc2)s1.O=C(O)C(F)(F)F [NCGC00343826-01] | -50%
Cc1ccc(S(=O)(=O)Nc2cnccc2C(=O)Nc2nc3ccccc3s2)cc1.O=C(O)C(F)(F)F [NCGC00343897-01] | -52%

Same assay, conditions: confirmatory screen; read-out: CONFIRMATORY SCREEN IC50

SMILES | IC50
Cc1ccc(S(=O)(=O)Nc2cnccc2C(=O)Nc2nc3ccccc3s2)cc1.O=C(O)C(F)(F)F [NCGC00343897-01] | 10 µM

Same assay, conditions: qHTS primary screen hits, Table S2; negative = inhibition

SMILES | Efficacy (%)
Cc1ccc(S(=O)(=O)Nc2cnccc2C(=O)Nc2nc(-c3nc4ccccc4s3)cs2)cc1.O=C(O)C(F)(F)F [NCGC00343736-01] | -51%
N#Cc1cnc(NS(=O)(=O)c2ccc(NC(=O)Cc3ccc(F)c(Cl)c3)cc2)s1.O=C(O)C(F)(F)F [NCGC00343826-01] | -29%
Cc1ccc(S(=O)(=O)Nc2cnccc2C(=O)Nc2nc3ccccc3s2)cc1.O=C(O)C(F)(F)F [NCGC00343897-01] | -44%

Same assay, conditions: qHTS primary screen hits, Table S2; negative sign = inhibitory curve

SMILES | Curve Class
Cc1ccc(S(=O)(=O)Nc2cnccc2C(=O)Nc2nc(-c3nc4ccccc4s3)cs2)cc1.O=C(O)C(F)(F)F [NCGC00343736-01] | -1.2

Same assay, conditions: qHTS primary screen hits, Table S2; negative sign = inhibitory curve; several classes where COUNT > 1

SMILES | Curve Class
N#Cc1cnc(NS(=O)(=O)c2ccc(NC(=O)Cc3ccc(F)c(Cl)c3)cc2)s1.O=C(O)C(F)(F)F [NCGC00343826-01] | -1.2
Cc1ccc(S(=O)(=O)Nc2cnccc2C(=O)Nc2nc3ccccc3s2)cc1.O=C(O)C(F)(F)F [NCGC00343897-01] | -1.2

Same assay, conditions: qHTS primary screen hits, Table S2; read-out: IC50

SMILES | IC50
Cc1ccc(S(=O)(=O)Nc2cnccc2C(=O)Nc2nc(-c3nc4ccccc4s3)cs2)cc1.O=C(O)C(F)(F)F [NCGC00343736-01] | 28.2 µM
N#Cc1cnc(NS(=O)(=O)c2ccc(NC(=O)Cc3ccc(F)c(Cl)c3)cc2)s1.O=C(O)C(F)(F)F [NCGC00343826-01] | 2.8 µM
Cc1ccc(S(=O)(=O)Nc2cnccc2C(=O)Nc2nc3ccccc3s2)cc1.O=C(O)C(F)(F)F [NCGC00343897-01] | 31.6 µM

Each molecule was assayed against T3, CIB1 and αIIb interaction (GST-CIB1 : F-αIIb peptide) (Homo sapiens, UniProt Q99828) (assay: FP assay, 384-well format (screen)). Details: F-αIIb peptide.
T3 construct: made in house; host or cells: BL-21 plus RIL cells (E. coli)
T3 sequence (Q99828 1-191): T1 sequence (Q99828 1-191)
Format: binding
Set-up: 384-well SCREEN Efficacy (%): concentration or dose not given beside the values

SMILES | 384-well SCREEN Efficacy (%)
Cc1ccc(S(=O)(=O)Nc2cnccc2C(=O)Nc2nc(-c3nc4ccccc4s3)cs2)cc1.O=C(O)C(F)(F)F [NCGC00343736-01] | 44%
N#Cc1cnc(NS(=O)(=O)c2ccc(NC(=O)Cc3ccc(F)c(Cl)c3)cc2)s1.O=C(O)C(F)(F)F [NCGC00343826-01] | 36%
Cc1ccc(S(=O)(=O)Nc2cnccc2C(=O)Nc2nc3ccccc3s2)cc1.O=C(O)C(F)(F)F [NCGC00343897-01] | 30%

Same assay, conditions: F-αIIb peptide; YES/NO

SMILES | 384-well SCREEN Confirm?
Cc1ccc(S(=O)(=O)Nc2cnccc2C(=O)Nc2nc(-c3nc4ccccc4s3)cs2)cc1.O=C(O)C(F)(F)F [NCGC00343736-01] | YES
N#Cc1cnc(NS(=O)(=O)c2ccc(NC(=O)Cc3ccc(F)c(Cl)c3)cc2)s1.O=C(O)C(F)(F)F [NCGC00343826-01] | YES
Cc1ccc(S(=O)(=O)Nc2cnccc2C(=O)Nc2nc3ccccc3s2)cc1.O=C(O)C(F)(F)F [NCGC00343897-01] | YES

Same assay, conditions: F-αIIb peptide; read-out: 384-well SCREEN IC50

SMILES | IC50
Cc1ccc(S(=O)(=O)Nc2cnccc2C(=O)Nc2nc(-c3nc4ccccc4s3)cs2)cc1.O=C(O)C(F)(F)F [NCGC00343736-01] | 22.4 µM
N#Cc1cnc(NS(=O)(=O)c2ccc(NC(=O)Cc3ccc(F)c(Cl)c3)cc2)s1.O=C(O)C(F)(F)F [NCGC00343826-01] | 2.2 µM
Cc1ccc(S(=O)(=O)Nc2cnccc2C(=O)Nc2nc3ccccc3s2)cc1.O=C(O)C(F)(F)F [NCGC00343897-01] | 12.6 µM

The molecules below were run against T1, GST-CIB1 : F-scrambled peptide (assay: FP scrambled-peptide counter screen, 1536-well format). Details: scrambled-peptide counterscreen.
Format: binding

SMILES | COUNTERSCREEN Efficacy (%)
Cc1ccc(S(=O)(=O)Nc2cnccc2C(=O)Nc2nc(-c3nc4ccccc4s3)cs2)cc1.O=C(O)C(F)(F)F [NCGC00343736-01] | -16%
N#Cc1cnc(NS(=O)(=O)c2ccc(NC(=O)Cc3ccc(F)c(Cl)c3)cc2)s1.O=C(O)C(F)(F)F [NCGC00343826-01] | 24%
Cc1ccc(S(=O)(=O)Nc2cnccc2C(=O)Nc2nc3ccccc3s2)cc1.O=C(O)C(F)(F)F [NCGC00343897-01] | 17%

Same assay, conditions: scrambled-peptide counterscreen, YES/NO call

SMILES | COUNTERSCREEN Confirm?
Cc1ccc(S(=O)(=O)Nc2cnccc2C(=O)Nc2nc(-c3nc4ccccc4s3)cs2)cc1.O=C(O)C(F)(F)F [NCGC00343736-01] | YES
N#Cc1cnc(NS(=O)(=O)c2ccc(NC(=O)Cc3ccc(F)c(Cl)c3)cc2)s1.O=C(O)C(F)(F)F [NCGC00343826-01] | YES
Cc1ccc(S(=O)(=O)Nc2cnccc2C(=O)Nc2nc3ccccc3s2)cc1.O=C(O)C(F)(F)F [NCGC00343897-01] | YES

Same assay, conditions: scrambled-peptide counterscreen, qHTS curve class

SMILES | COUNTERSCREEN Curve Class
Cc1ccc(S(=O)(=O)Nc2cnccc2C(=O)Nc2nc(-c3nc4ccccc4s3)cs2)cc1.O=C(O)C(F)(F)F [NCGC00343736-01] | 4
N#Cc1cnc(NS(=O)(=O)c2ccc(NC(=O)Cc3ccc(F)c(Cl)c3)cc2)s1.O=C(O)C(F)(F)F [NCGC00343826-01] | 4
Cc1ccc(S(=O)(=O)Nc2cnccc2C(=O)Nc2nc3ccccc3s2)cc1.O=C(O)C(F)(F)F [NCGC00343897-01] | 4
